Assay results from the supplement of paper PMC5770543.
± gives the standard deviation.

Columns and labels:
[1] = system: Plasmodium falciparum 3D7; experiment: EC50 growth inhibition (60 h, SYBR Green); conditions: stage: ring-stage start
[2] = target: Toxoplasma gondii RH tachyzoites; experiment: EC50 growth inhibition (48 h luciferase)
[3] = system: Plasmodium falciparum 3D7; experiment: % inhibition of schizont-to-ring transition vs DMSO; higher = more inhibition
Outline: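 Schizont-to-ring transition inhibition is the formation of new rings relative to vehicle controls. Tightly synchronised P. falciparum schizonts at about 40–42 hours post-invasion (1% parasitemia, 2.5% hematocrit, AlbuMAX-supplemented RPMI) were treated with compound at 1, 3 or 10 µM, alongside vehicle and positive controls. After glutaraldehyde fixation, Triton permeabilisation and Hoechst 33342 staining, at least 100,000 events were counted by flow cytometry, and values are the mean of three experiments.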

[4] = system: Toxoplasma gondii RH tachyzoites; experiment: % growth inhibition vs DMSO (48 h luciferase); higher = more inhibition; conditions: 10 µM
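For % growth inhibition vs DMSO (48 h luciferase) in this document: tested in triplicate wells of 96-well plates on confluent HFF monolayers, with 1% DMSO wells as negative control in four replicates.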

SMILES	EC50 growth inhibition [1]	EC50 growth inhibition [2]	% inhibition of schizont-to-ring transition ([3]; 1 µM)	% inhibition of schizont-to-ring transition ([3]; 3 µM)	% inhibition of schizont-to-ring transition ([3]; 10 µM)	% growth inhibition [4]
COc1ccc(Nc2nc(N/N=C/c3ccc(O)cc3)nc(Nc3ccc([N+](=O)[O-])cc3)n2)cc1	1100 nM	2630 nM	20.8%	44%	63%	100.2 ± 0.27%
CCCOCc1cc(CN2CCN(c3cccc(Cl)c3)CC2)c(O)c2ncccc12	3790 nM	1500 nM	6.74%	41.8%	52.5%	99.61 ± 0.24%
CSc1ccccc1C(=O)Nc1nc(-c2ccccn2)cs1	1710 nM	849 nM	23%	26.9%	40.1%	99.44 ± 0.19%
COc1cc(-c2nc(-c3ccc(Sc4ccccc4)cc3)c(-c3ccccc3)[nH]2)cc(OC)c1O	449 nM	1320 nM	< 0%	< 0%	45.4%	98.59 ± 0.34%
OC(CNCC1CCCO1)Cn1c2ccc(Cl)cc2c2cc(Cl)ccc21 (stereo not drawn)	394 nM	4460 nM	5.57%	44.1%	65.7%	99.23 ± 0.57%
Cc1cc(Nc2cccc(F)c2)nc(NCc2ccccc2)n1	149 nM	879 nM	43.1%	60.2%	70.5%	97.33 ± 0.9%
CCOC(=O)c1cn(CC)c2cc(N(C)CCc3ccc(OC)c(OC)c3)c(F)cc2c1=O	210 nM	910 nM	36.8%	60.5%	66.7%	97.69 ± 0.15%
Oc1ccc(Cl)cc1CNc1nc2ccccc2[nH]1	1420 nM	1310 nM	22.5%	38.5%	58.6%	96.5 ± 1.9%
CCOC(=O)c1cnc2ccc(Cl)cc2c1NCCCN(C)C	1020 nM	2340 nM	0.181%	23.3%	54.9%	82.2 ± 2.8%
CN(C)CCCNCc1ccc(-c2ccc(F)c(Cl)c2)o1	601 nM	1660 nM	12.5%	38.8%	63.5%	92.8 ± 3.3%
COc1ccc(-c2nonc2NC(=O)c2cccc(Cl)c2)cc1OC	1170 nM	35.3 nM	36.5%	56.1%	71%	84.3 ± 0.96%
c1ccc(CNc2nc(Nc3ccccc3)nc3ccccc23)cc1	181 nM	708 nM	44.8%	51.2%	66.8%	99.917 ± 0.022%
Cc1cc(N(C)C)nc(Nc2ccc(NC(=O)Nc3ccccc3)cc2)n1	236 nM	1990 nM	41.8%	56.5%	71.1%	95.4 ± 1.2%
COc1ccc(C2c3ccc4ccccc4c3Oc3ncn(CCCN(C)C)c(=N)c32)cc1 (stereo not drawn)	319 nM	2650 nM	22.6%	63.4%	77.4%	100.2 ± 0.12%
CCN(CC)c1ccc(NC(=O)c2cccs2)cc1	2110 nM	1650 nM	< 0%	3.66%	31.7%	91.4 ± 2.7%
O=C1c2ccccc2C2=Nc3ccccc3SC(c3cccc(F)c3)C12 (stereo not drawn)	283 nM	916 nM	15.1%	29%	37.5%	99.31 ± 0.18%
CCOc1ccc(-c2nonc2NC(=O)c2cccc(C)c2)cc1OCC	374 nM	1620 nM	81.4%	80%	78.5%	96.5 ± 1.9%
COc1cc(C(=O)ON=C(N)Cc2cccc3ccccc23)cc(OC)c1OC	218 nM	836 nM	7.84%	57%	73.7%	99.01 ± 0.4%
COc1ccc2nc(C)cc(Nc3ccc(Cl)cc3)c2c1	477 nM	556 nM	24.7%	39.5%	56.8%	99.3 ± 1%
Cc1sc(NC(=O)c2ccccc2)c(C(c2cccs2)N2CCN(c3ccccc3)CC2)c1C (stereo not drawn)	1930 nM	550 nM	5.65%	10.7%	36.5%	88.7 ± 5.2%
Nc1ccc(-c2nc3cc(Oc4ccc(Oc5ccc6[nH]c(-c7ccc(N)cc7)nc6c5)cc4)ccc3[nH]2)cc1	253 nM	1610 nM	23.6%	43.2%	60.7%	100.27 ± 0.078%
CCn1nc(-c2ccc(C(=O)OC)cc2)nc2c(=O)n(C)c(=O)nc1-2	107 nM	2200 nM	30.7%	37.6%	53.3%	100.5 ± 0.19%
Oc1ccc(Br)cc1CN1CCN(Cc2ccc(Cl)cc2)CC1	1090 nM	6610 nM	16.2%	45.5%	68.8%	91.5 ± 3.5%
O=C(Nc1ccc(CN2CCOCC2)cc1)c1ccc(-c2cc(Cl)ccc2Cl)o1	1230 nM	5590 nM	5.81%	22.5%	42.6%	81.1 ± 4.3%
O=c1nc(C=Cc2ccc(Cl)cc2)oc2ccccc12	999 nM	32.4 nM	16.8%	24.1%	56.2%	94.2 ± 2.2%
COc1cccc(NC(=O)Cn2c(C)c(C#N)c3ccccc32)c1	231 nM	905 nM	56.8%	75.8%	77.4%	94.39 ± 0.68%
CCCc1c(C)nc2ccccc2c1O	1010 nM	803 nM	8.03%	21.8%	46.6%	87.69 ± 0.86%
COc1ccc(-c2nc3cc(Cc4ccc5[nH]c(-c6ccc(OC)cc6)nc5c4)ccc3[nH]2)cc1	185 nM	1470 nM	50.4%	65.3%	68.3%	100 ± 0.58%
